Laboratory results from US11753395B2 (Kinnate Biopharma Inc., priority 2021, dated 2023).

What was measured:
MET = biological target: T1, MET (Homo sapiens, UniProt P08581); assay: MET Mobility Shift Assay; details: biochemical assay IC50; 100 μM ATP, 60 minute kinase reaction
T1 construct: purchased Carna Biosciences 08-151
Outline: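 Recombinant MET at 0.625 nM was pre-incubated 30 min at room temperature with 1.5 μM FLPeptide30 and 10 mM MgCl2 in HEPES buffer with DTT. The reaction was started with 100 μM ATP, ran 60 min, and was stopped with EDTA. Microfluidic mobility-shift % conversion gave IC50.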

MET D1228N = biological target: T2, MET D1228N (Homo sapiens, UniProt P08581, D1228N); assay: MET D1228N Mobility Shift Assay; details: biochemical assay IC50; 100 μM ATP, 60 minute kinase reaction
T2 construct: purchased Signalchem M52-12IG
T2 sequence (P08581 25-1390 D1228N): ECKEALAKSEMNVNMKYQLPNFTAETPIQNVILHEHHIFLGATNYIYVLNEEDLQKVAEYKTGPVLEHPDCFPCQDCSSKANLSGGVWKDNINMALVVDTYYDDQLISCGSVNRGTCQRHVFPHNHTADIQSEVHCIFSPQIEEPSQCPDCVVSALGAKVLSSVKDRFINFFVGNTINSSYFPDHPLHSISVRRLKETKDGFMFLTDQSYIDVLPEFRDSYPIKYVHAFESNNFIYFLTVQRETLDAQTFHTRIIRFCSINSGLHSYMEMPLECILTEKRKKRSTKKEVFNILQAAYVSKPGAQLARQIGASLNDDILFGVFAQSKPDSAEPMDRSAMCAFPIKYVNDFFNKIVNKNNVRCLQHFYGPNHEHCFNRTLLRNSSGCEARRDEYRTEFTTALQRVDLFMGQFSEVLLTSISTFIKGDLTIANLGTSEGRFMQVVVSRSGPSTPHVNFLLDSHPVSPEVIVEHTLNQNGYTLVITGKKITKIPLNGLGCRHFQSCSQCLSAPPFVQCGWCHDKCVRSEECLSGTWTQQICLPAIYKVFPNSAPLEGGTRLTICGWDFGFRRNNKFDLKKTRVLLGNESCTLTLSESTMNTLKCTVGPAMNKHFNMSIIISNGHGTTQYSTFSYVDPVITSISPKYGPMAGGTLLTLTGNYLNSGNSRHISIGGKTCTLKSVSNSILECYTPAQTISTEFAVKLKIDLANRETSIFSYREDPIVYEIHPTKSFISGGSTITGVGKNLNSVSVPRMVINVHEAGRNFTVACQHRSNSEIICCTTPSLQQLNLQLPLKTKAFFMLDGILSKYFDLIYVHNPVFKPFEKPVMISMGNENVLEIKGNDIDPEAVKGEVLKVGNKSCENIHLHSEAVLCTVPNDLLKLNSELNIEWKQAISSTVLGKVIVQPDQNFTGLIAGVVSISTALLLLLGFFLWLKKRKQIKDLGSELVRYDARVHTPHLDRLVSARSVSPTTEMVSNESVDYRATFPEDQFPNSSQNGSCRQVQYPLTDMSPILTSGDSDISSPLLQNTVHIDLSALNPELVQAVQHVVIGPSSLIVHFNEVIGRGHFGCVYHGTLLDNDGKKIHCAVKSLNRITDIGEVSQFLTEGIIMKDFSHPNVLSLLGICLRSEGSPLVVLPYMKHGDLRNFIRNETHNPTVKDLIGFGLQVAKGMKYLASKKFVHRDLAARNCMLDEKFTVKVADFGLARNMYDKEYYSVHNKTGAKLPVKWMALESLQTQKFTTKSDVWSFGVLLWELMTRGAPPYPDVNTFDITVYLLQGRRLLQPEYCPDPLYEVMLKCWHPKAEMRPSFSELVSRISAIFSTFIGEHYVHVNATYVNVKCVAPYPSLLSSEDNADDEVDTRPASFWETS
Outline: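 Enzyme at 0.313 nM preincubated 30 min at room temperature with 1.5 μM FAM-labelled peptide and 10 mM MgCl2 in HEPES buffer with DTT; reaction started with 100 μM ATP, run 60 min, stopped with EDTA. Substrate/product separated by microfluidic mobility shift; IC50 from inhibition of % conversion.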

Ba/F3-TPR-MET cells = biological target: T3, Ba/F3-TPR-MET cells (Homo sapiens, UniProt P08581); assay: CellTiter-Glo Cell Viability Assay, Ba/F3-TPR-MET; type: cell-based; details: 72 hours
T3 construct: fused on or other part: P12270 (Nucleoprotein TPR)
Outline: (§1)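 Ba/F3 cells carrying TPR-MET or TPR-MET-D1228N, 3000 per well, were exposed for 72 h at 37 °C to 9-point 3-fold compound dilutions at 0.1% DMSO. Viability was read as ATP by CellTiter-Glo 2.0 luminescence, and IC50 values came from curve fitting.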

[1] = biological target: T4, Ba/F3-TPR-MET-D1228N cells (Homo sapiens, UniProt P08581, D1228N, cells depend on it); assay: CellTiter-Glo Cell Viability Assay, Ba/F3-TPR-MET-D1228N; type: cell-based; details: 72 hours
T4 construct: fused on or other part: P12270 (Nucleoprotein TPR)
T4 sequence (P08581 whole entry D1228N, the tested form may be a part): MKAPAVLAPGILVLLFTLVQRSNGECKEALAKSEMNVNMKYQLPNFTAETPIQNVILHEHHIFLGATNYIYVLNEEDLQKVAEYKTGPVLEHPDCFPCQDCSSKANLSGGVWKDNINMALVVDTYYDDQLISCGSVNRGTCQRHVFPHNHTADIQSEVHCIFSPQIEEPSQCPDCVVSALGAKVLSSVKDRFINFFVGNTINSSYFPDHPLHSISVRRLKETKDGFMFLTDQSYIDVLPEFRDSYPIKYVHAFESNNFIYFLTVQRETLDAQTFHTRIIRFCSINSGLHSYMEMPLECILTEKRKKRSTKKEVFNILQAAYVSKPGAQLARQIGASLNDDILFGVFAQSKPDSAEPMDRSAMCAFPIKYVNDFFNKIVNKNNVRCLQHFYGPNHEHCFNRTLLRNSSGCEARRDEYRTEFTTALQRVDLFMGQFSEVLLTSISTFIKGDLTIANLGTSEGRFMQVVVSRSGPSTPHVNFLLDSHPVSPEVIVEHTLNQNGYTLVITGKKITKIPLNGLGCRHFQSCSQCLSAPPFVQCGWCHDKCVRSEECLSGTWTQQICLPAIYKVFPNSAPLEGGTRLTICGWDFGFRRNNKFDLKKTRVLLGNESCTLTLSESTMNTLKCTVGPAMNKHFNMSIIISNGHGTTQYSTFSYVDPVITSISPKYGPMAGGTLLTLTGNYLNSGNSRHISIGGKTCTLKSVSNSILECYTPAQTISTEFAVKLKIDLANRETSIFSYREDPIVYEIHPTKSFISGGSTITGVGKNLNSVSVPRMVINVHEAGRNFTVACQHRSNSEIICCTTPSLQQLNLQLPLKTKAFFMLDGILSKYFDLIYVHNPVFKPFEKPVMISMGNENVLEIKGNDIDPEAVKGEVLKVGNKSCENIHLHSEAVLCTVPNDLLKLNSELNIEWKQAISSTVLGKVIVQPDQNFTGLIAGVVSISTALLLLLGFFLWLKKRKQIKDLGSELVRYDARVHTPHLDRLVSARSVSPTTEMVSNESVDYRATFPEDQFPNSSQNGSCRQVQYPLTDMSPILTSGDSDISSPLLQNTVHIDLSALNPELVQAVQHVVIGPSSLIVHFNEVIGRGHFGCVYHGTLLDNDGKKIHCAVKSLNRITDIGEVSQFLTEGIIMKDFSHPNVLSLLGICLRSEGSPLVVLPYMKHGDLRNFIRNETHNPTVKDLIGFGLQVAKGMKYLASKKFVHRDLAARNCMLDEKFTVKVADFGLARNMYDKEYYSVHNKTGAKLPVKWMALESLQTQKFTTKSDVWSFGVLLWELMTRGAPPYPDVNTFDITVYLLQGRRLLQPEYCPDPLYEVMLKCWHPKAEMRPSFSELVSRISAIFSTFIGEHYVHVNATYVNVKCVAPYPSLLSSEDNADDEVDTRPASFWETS
Outline: as §1

T1 sequence (P08581 25-1390): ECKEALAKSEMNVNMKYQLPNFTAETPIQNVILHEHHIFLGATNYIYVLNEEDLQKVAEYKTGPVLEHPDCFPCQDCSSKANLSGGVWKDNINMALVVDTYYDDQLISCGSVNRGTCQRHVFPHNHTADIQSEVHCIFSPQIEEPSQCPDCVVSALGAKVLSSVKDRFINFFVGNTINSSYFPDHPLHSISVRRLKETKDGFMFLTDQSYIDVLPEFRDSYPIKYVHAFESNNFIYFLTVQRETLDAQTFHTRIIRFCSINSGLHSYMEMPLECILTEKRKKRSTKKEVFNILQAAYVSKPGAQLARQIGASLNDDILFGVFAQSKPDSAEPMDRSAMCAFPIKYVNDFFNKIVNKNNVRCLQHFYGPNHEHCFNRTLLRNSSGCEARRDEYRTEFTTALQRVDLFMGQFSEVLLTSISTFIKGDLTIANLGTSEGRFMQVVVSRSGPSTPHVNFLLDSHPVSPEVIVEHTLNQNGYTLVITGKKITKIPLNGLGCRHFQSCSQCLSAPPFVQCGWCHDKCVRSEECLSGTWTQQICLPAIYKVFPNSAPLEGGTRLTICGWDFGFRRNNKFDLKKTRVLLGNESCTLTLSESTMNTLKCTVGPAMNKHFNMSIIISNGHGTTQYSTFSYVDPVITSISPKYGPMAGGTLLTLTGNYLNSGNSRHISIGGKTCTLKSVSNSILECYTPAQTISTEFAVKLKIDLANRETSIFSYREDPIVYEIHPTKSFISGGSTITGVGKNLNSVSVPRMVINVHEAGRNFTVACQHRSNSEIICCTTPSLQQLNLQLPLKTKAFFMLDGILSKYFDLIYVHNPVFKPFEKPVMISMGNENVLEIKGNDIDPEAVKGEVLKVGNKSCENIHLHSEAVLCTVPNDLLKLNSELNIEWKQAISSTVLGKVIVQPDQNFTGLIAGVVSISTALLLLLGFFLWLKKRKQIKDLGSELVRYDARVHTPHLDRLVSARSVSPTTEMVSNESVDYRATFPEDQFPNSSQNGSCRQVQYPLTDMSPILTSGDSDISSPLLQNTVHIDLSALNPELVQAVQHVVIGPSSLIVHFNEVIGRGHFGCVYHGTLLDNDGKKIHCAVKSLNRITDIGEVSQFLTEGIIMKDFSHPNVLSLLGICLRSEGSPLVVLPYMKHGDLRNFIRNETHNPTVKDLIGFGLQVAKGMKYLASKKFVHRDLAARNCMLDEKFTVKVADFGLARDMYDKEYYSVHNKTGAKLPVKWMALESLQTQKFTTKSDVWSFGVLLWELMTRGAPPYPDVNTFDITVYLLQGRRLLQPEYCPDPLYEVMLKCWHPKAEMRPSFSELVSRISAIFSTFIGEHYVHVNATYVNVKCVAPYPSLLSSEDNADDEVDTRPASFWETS

Row | Compound | IC50 (MET) [nM] | IC50 (MET D1228N) [nM] | EC50 (Ba/F3-TPR-MET cells) [nM] | EC50 [1] [nM]
1 | CNCCCOc1cc2nccc(Oc3c(F)cc(NC(=O)c4cnccc4OC4CC4)cc3F)c2cc1OC [Example 84, 4-cyclopropoxy-N-(3,5-difluoro-4-((6-methoxy-7-(3-(methylamino)propoxy)quinolin-4-yl)oxy)phenyl)pyridine-3-carboxamide] | ≤ 100 | ≤ 100 | 100 to 1000 | ≤ 100
2 | CNCCCOc1cc2nccc(Oc3c(F)cc(NC(=O)c4cnccc4OC4CCC4)cc3F)c2cc1OC [Example 85, 4-cyclobutoxy-N-(3,5-difluoro-4-((6-methoxy-7-(3-(methylamino)propoxy)quinolin-4-yl)oxy)phenyl)pyridine-3-carboxamide] | ≤ 100 | ≤ 100 | 100 to 1000 | 100 to 1000
3 | CNCCOc1ccc2c(Oc3c(F)cc(NC(=O)c4cnccc4OC4CC4)cc3F)ccnc2c1 [Example 87, 4-cyclopropoxy-N-[3,5-difluoro-4-({7-[2-(methylamino)ethoxy]quinolin-4-yl}oxy)phenyl]pyridine-3-carboxamide] | ≤ 100 | ≤ 100 | ≤ 100 | ≤ 100
4 | COc1ccc2c(Oc3c(F)cc(NC(=O)c4cnccc4OC4CC4)cc3F)ccnc2c1 [Example 90, 4-cyclopropoxy-N-{3,5-difluoro-4-[(7-methoxyquinolin-4-yl)oxy]phenyl}pyridine-3-carboxamide] | ≤ 100 | ≤ 100 | 100 to 1000 | ≤ 100
5 | COc1cc2nccc(Oc3c(F)cc(NC(=O)c4cnccc4OC4CC4)cc3F)c2cc1OC [Example 91, 4-cyclopropoxy-N-{4-[(6,7-dimethoxyquinolin-4-yl)oxy]-3,5-difluorophenyl}pyridine-3-carboxamide] | ≤ 100 | ≤ 100 | ≤ 100 | ≤ 100
6 | CNCCOc1cc2nccc(Oc3c(F)cc(NC(=O)c4cnccc4OC4CC4)c(F)c3F)c2cc1OC [Example 93, 4-cyclopropoxy-N-[2,3,5-trifluoro-4-({6-methoxy-7-[2-(methylamino)ethoxy]quinolin-4-yl}oxy)phenyl]pyridine-3-carboxamide] | ≤ 100 | ≤ 100 | ≤ 100 | ≤ 100
7 | COc1cc2nccc(Oc3c(F)cc(NC(=O)c4cnccc4OCCO)cc3F)c2cc1OC [Example 95, N-{4-[(6,7-dimethoxyquinolin-4-yl)oxy]-3,5-difluorophenyl}-4-(2-hydroxyethoxy)pyridine-3-carboxamide] | ≤ 100 | ≤ 100 | 100 to 1000 | 100 to 1000
8 | COc1cc2nccc(Oc3c(F)cc(NC(=O)c4cnccc4OC4CC4)cc3F)c2cn1 [Example 96, 4-cyclopropoxy-N-{3,5-difluoro-4-[(7-methoxy-1,6-naphthyridin-4-yl)oxy]phenyl}pyridine-3-carboxamide] | ≤ 100 | ≤ 100 | 100 to 1000 | 100 to 1000
9 | COc1cc2c(Oc3c(F)cc(NC(=O)c4cnccc4OC4CC4)cc3F)ccnc2cc1OCCO [Example 97, 4-cyclopropoxy-N-(3,5-difluoro-4-{[7-(2-hydroxyethoxy)-6-methoxyquinolin-4-yl]oxy}phenyl)pyridine-3-carboxamide] | ≤ 100 | ≤ 100 | ≤ 100 | ≤ 100
10 | COc1cc2c(Oc3c(F)cc(NC(=O)c4cnccc4OC4CC4)cc3F)ccnc2cc1OC[C@H](C)O [Example 98, 4-cyclopropoxy-N-[3,5-difluoro-4-({7-[(2S)-2-hydroxypropoxy]-6-methoxyquinolin-4-yl}oxy)phenyl]pyridine-3-carboxamide] | ≤ 100 | ≤ 100 | ≤ 100 | ≤ 100
11 | COc1cc2c(Oc3c(F)cc(NC(=O)c4cnccc4OC4CC4)cc3F)ccnc2cc1OC[C@@H](C)O [Example 99, 4-cyclopropoxy-N-[3,5-difluoro-4-({7-[(2R)-2-hydroxypropoxy]-6-methoxyquinolin-4-yl}oxy)phenyl]pyridine-3-carboxamide] | ≤ 100 | ≤ 100 | ≤ 100 | ≤ 100
12 | C[C@@H](O)COc1ccc2c(Oc3c(F)cc(NC(=O)c4cnccc4OC4CC4)cc3F)ccnc2c1 [Example 101, 4-cyclopropoxy-N-[3,5-difluoro-4-({7-[(2R)-2-hydroxypropoxy]quinolin-4-yl}oxy)phenyl]pyridine-3-carboxamide] | ≤ 100 | ≤ 100 | 100 to 1000 | 100 to 1000
13 | CC(C)(O)COc1ccc2c(Oc3c(F)cc(NC(=O)c4cnccc4OC4CC4)cc3F)ccnc2c1 [Example 104, 4-cyclopropoxy-N-(3,5-difluoro-4-{[7-(2-hydroxy-2-methylpropoxy)quinolin-4-yl]oxy}phenyl)pyridine-3-carboxamide] | ≤ 100 | ≤ 100 | 1000 to 10000 | 100 to 1000
14 | COc1cc2nccc(Oc3c(F)cc(NC(=O)c4cnccc4OC4CC4)cc3F)c2cc1OCCO [Example 107, 4-cyclopropoxy-N-(3,5-difluoro-4-((6-(2-hydroxyethoxy)-7-methoxyquinolin-4-yl)oxy)phenyl)pyridine-3-carboxamide] | ≤ 100 | ≤ 100 | ≤ 100 | ≤ 100
15 | CNCCOc1ccc2c(Oc3c(F)cc(NC(=O)c4cnc(F)cc4OC4CC4)cc3F)ccnc2c1 [Example 109, 4-cyclopropoxy-N-(3,5-difluoro-4-((7-(2-(methylamino)ethoxy)quinolin-4-yl)oxy)phenyl)-6-fluoropyridine-3-carboxamide] | ≤ 100 | ≤ 100 | ≤ 100 | ≤ 100

The next lines start with results.

Row | IC50 (MET) [nM] | IC50 (MET D1228N) [nM] | Compound | EC50 (Ba/F3-TPR-MET cells) [nM] | EC50 [1] [nM]
16 | ≤ 100 | ≤ 100 | CNCCCOc1cc2nccc(Oc3c(F)cc(NC(=O)c4cnccc4OC4COC4)cc3F)c2cc1OC [Example 86, N-(3,5-difluoro-4-((6-methoxy-7-(3-(methylamino)propoxy)quinolin-4-yl)oxy)phenyl)-4-(oxetan-3-yloxy)pyridine-3-carboxamide] | 100 to 1000 | 100 to 1000
17 | ≤ 100 | ≤ 100 | NC1(COc2ccc3c(Oc4c(F)cc(NC(=O)c5cnccc5OC5CC5)cc4F)ccnc3c2)CC1 [Example 88] | 100 to 1000 | ≤ 100
18 | ≤ 100 | ≤ 100 | O=C(Nc1cc(F)c(Oc2ccnc3cc(OC4CNC4)ccc23)c(F)c1)c1cnccc1OC1CC1 [Example 89, N-(4-{[7-(azetidin-3-yloxy)quinolin-4-yl]oxy}-3,5-difluorophenyl)-4-cyclopropoxypyridine-3-carboxamide] | 100 to 1000 | 100 to 1000
19 | ≤ 100 | ≤ 100 | COc1cc2nccc(Oc3c(F)cc(NC(=O)c4cnccc4OC4CC4)c(F)c3F)c2cc1OC [Example 92, 4-cyclopropoxy-N-{4-[(6,7-dimethoxyquinolin-4-yl)oxy]-2,3,5-trifluorophenyl}pyridine-3-carboxamide] | 100 to 1000 | 100 to 1000
20 | ≤ 100 | ≤ 100 | CNCCOc1ccc2c(Oc3c(F)cc(NC(=O)c4cnccc4OC4CC4)c(F)c3F)ccnc2c1 [Example 94, 4-cyclopropoxy-N-[2,3,5-trifluoro-4-({7-[2-(methylamino)ethoxy]quinolin-4-yl}oxy)phenyl]pyridine-3-carboxamide] | ≤ 100 | ≤ 100
21 | ≤ 100 | ≤ 100 | O=C(Nc1cc(F)c(Oc2ccnc3cc(OCCO)ccc23)c(F)c1)c1cnccc1OC1CC1 [Example 100, 4-cyclopropoxy-N-(3,5-difluoro-4-{[7-(2-hydroxyethoxy)quinolin-4-yl]oxy}phenyl)pyridine-3-carboxamide] | 100 to 1000 | ≤ 100
22 | ≤ 100 | ≤ 100 | C[C@H](O)COc1ccc2c(Oc3c(F)cc(NC(=O)c4cnccc4OC4CC4)cc3F)ccnc2c1 [Example 102, 4-cyclopropoxy-N-[3,5-difluoro-4-({7-[(2S)-2-hydroxypropoxy]quinolin-4-yl}oxy)phenyl]pyridine-3-carboxamide] | 100 to 1000 | 100 to 1000
23 | ≤ 100 | ≤ 100 | COCCOc1ccc2c(Oc3c(F)cc(NC(=O)c4cnccc4OC4CC4)cc3F)ccnc2c1 [Example 105, 4-cyclopropoxy-N-(3,5-difluoro-4-{[7-(2-methoxyethoxy)quinolin-4-yl]oxy}phenyl)pyridine-3-carboxamide] | 100 to 1000 | ≤ 100
24 | ≤ 100 | ≤ 100 | COCCOc1cc2nccc(Oc3c(F)cc(NC(=O)c4cnccc4OC4CC4)cc3F)c2cc1OC [Example 106, 4-cyclopropoxy-N-(3,5-difluoro-4-{[6-methoxy-7-(2-methoxyethoxy)quinolin-4-yl]oxy}phenyl)pyridine-3-carboxamide] | ≤ 100 | ≤ 100
25 | ≤ 100 | ≤ 100 | CC(C)(CO)Oc1ccc2c(Oc3c(F)cc(NC(=O)c4cnccc4OC4CC4)cc3F)ccnc2c1 [Example 108, 4-cyclopropoxy-N-(3,5-difluoro-4-((7-((1-hydroxy-2-methylpropan-2-yl)oxy)quinolin-4-yl)oxy)phenyl)pyridine-3-carboxamide] | 1000 to 10000 | 1000 to 10000
